Data taken from patent US4923861A, “6-(2-(2-(Substituted amino)-3-quinolinyl) ethenyl and ethyl) tetrahydro-4-hydroxypyran-2-one inhibitors of cholesterol biosynthesis” (Warner-Lambert Company, priority 1989, dated 1990).
Counter-ions that a name gives are not always drawn.

Key:
[1] = tested on: cholesterol synthesis (plasma [14C]cholesterol); assay: AICS (Acute Inhibition of Cholesterol Synthesis) screen; type: in vivo, male Sprague-Dawley rats; conditions: cholestyramine-fed male rats, single oral gavage dose (dose not given), [1-14C]acetate i.p. one hour after dosing, blood after 50 minutes
Protocol: Additionally, the ability of compounds of the present invention to inhibit the biosynthesis of cholesterol was also measured by a method (designated AICS (Acute Inhibition of Cholesterol Synthesis) screen) which utilizes the procedure described by A. W. Alberts, et al, Proceedings of the National Academy of Sciences, Volume 77, pages 3957-3961 (1980).
In this method male Sprague-Dawley rats (200 g body weight) previously fed 5% cholestyramine for three days were randomly divided into groups (N=5/group) and given a single dose of vehicle (controls) or compound by an oral gavage at the indicated doses. One hour after drug dosing, all rats were injected intraperitoneally with sodium[1-^14 C]acetate (18.75 μCi/rat in 0.2 ml saline). After 50 minutes, blood samples were taken, plasma obtained by centrifugation, and plasma [^14 C]cholesterol measured after saponification and extraction.

[2] = tested on: sterol synthesis (rat liver homogenate); assay: CSI (Cholesterol Synthesis Inhibition) screen; type: biochemical; conditions: 14C-acetate incorporation into nonsaponifiable lipid, one-hour period
Protocol: The ability of compounds of the present invention to inhibit the biosynthesis of cholesterol was measured by a method (designated CSI (Cholesterol Synthesis Inhibition) screen) which utilizes the procedure described by R. E. Dugan et al, Archives of Biochemistry and Biophysics, Volume 152, pages 21-27 (1972). In this method, the level of HMG-CoA enzyme activity in standard laboratory rats is increased by feeding the rats a chow diet containing 5% cholestyramine for four days, after which the rats are sacrificed.
The rat livers are homogenized, and the incorporation of ^14 C-acetate into nonsaponifiable lipid by the rat liver homogenate is measured. The micromolar concentration of compound required for 50% inhibition of sterol synthesis over a one-hour period is measured, and expressed as an IC50 value.

Structure (SMILES)	AICS % Inhibition [1]	IC50 [2]
CN(C)c1nc2ccccc2c(-c2ccc(F)cc2)c1/C=C/[C@@H]1C[C@@H](O)CC(=O)O1 (relative stereo) [1 (lactone), [4α,6β(E)]-6-[2-[2-(Dimethylamino)-4-(4-fluorophenyl)-3-quinolinyl]ethenyl]tetrahydro-4-hydroxy-2H-pyran-2-one]	52%	–
CN(C)c1nc2ccccc2c(-c2ccc(F)cc2)c1/C=C/[C@@H](O)C[C@@H](O)CC(=O)O (relative stereo) [[R*,S*-(E)]-7-[2-dimethylamino)-4-(4-fluorophenyl)-3-quinolinyl]-3,5-dihydroxy-6-heptenoic acid, monosodium salt]	49%	47 nM
